In the test the test system is symmetric di-methyl arginine in Z-138 cells. Nature of the test: Z-138 Methylation Assay (In Cell Western for symmetric di-methyl arginine and DNA content). It is filed as cell-based. The settings on record: Homo sapiens; Z-138 methylation In Cell Western; read-out: ICW EC50. From the text: [formula] [formula] Where top and bottom are the normally allowed to float, but may be fixed at 100 or 0 respectively in a 3-parameter fit. The Hill Coefficient normally allowed to float but may also be fixed at 1 in a 3-parameter fit. Y is the % inhibition and X is the compound concentration.
RPMI/Glutamax medium, penicillin-streptomycin, heat inactivated fetal bovine serum, and D-PBS were purchased from Life Technologies, Grand Island, N.Y., USA. Odyssey blocking buffer, 800CW goat anti-rabbit IgG (H+L) antibody, and Licor Odyssey infrared scanner were purchased from Licor Biosciences, Lincoln, Nebr., USA. Symmetric di-methyl arginine antibody was purchased from EMD Millipore, Billerica, Mass., USA. 16% Paraformaldehyde was purchased from Electron Microscopy Sciences, Hatfield, Pa., USA.
Cell Treatment, in Cell Western (ICW) for Detection of Symmetric Di-Methyl Arginine and DNA Content.
Z-138 cells were seeded in assay medium at a concentration of 50,000 cells per mL to a 384-well cell culture plate with 50 μL per well. Compound (100 nL) from 384 well source plates was added directly to 384 well cell plate. Plates were incubated at 37° C., 5% CO2 for 96 hours. […] Plates were incubated at room temperature for 30 minutes then incubated at 37° C., 5% CO2 for 5 hours. After the incubation, 40 μL per well of 8% paraformaldehyde in PBS (16% paraformaldahyde was diluted to 8% in PBS) was added to each plate and incubated for 30 minutes. […] Next 30 μL per well of Odyssey blocking buffer were added to each plate and incubated 1 hour at room temperature. Blocking buffer was removed and 20 μL per well of primary antibody was added (symmetric di-methyl arginine diluted 1:100 in Odyssey buffer with 0.1% Tween 20 (v/v)) and plates were incubated overnight (16 hours) at 4° C. Plates were washed 5 times with 100 μL per well of wash buffer. Next 20 μL per well of secondary antibody was added (1:200 800CW goat anti-rabbit IgG (H+L) antibody, 1:1000 DRAQ5 (Biostatus limited) in Odyssey buffer with 0.1% Tween 20 (v/v)) and incubated for 1 hour at room temperature. The plates were washed 5 times with 100 μL per well wash buffer then 1 time with 100 μL per well of water. Plates were allowed to dry at room temperature then imaged on the Licor Odyssey machine which measures integrated intensity at 700 nm and 800 nm wavelengths. Both 700 and 800 channels were scanned.
First, the ratio for each well was determined by:
Each plate included fourteen control wells of DMSO only treatment (minimum inhibition) as well as fourteen control wells for maximum inhibition treated with 3 μM of a reference compound (Background wells). The average of the ratio values for each control type was calculated and used to determine the percent inhibition for each test well in the plate. Reference compound was serially diluted three-fold in DMSO for a total of nine test concentrations, beginning at 3 μM. Percent inhibition was determined and IC50 curves were generated using triplicate wells per concentration of compound.
What is called EC50 is the concentration needed to bring the measured effect to its halfway point. As for `O=C(NC[C@H](O)CN1CCc2ccccc2C1)c1cncc(NC2COC2)c1` [Compound 299], the EC50 is less than 100 nM.

As for `CS(=O)(=O)N1CCC(Oc2cncc(C(=O)NC[C@H](O)CN3CCc4ccccc4C3)c2)CC1` [Compound 290], the EC50 is less than 100 nM.

With `O=C(NC[C@H](O)CN1CCc2ccccc2C1)c1cccc2ccccc12` [Compound 295], the EC50 was in the range of 101 to 1000 nM.

Consider `O=C(NC[C@H](O)CN1CCc2ccccc2C1)c1cncc(NC2CCN(CC(F)(F)F)C2)c1` (some centres unmarked) [Compound 303], for which the EC50 was less than 100 nM.

`CN1CCC(Oc2cncc(C(=O)NC[C@H](O)CN3CCc4ccccc4C3)c2)CC1` [Compound 288]: the concentration giving a half-maximal response (EC50) was 101 to 1000 nM.

Values taken from patent US10391089B2, “PRMT5 inhibitors and uses therof” (Epizyme, Inc., priority 2012, dated 2019).
